Experimental data published in the supplement of paper PMC10307832.

Assays:
Test in all cases: relative viability (nuclei count vs DMSO), 5 days (fraction); higher = more cells survive
[1] = compound: CC1(COc2ccc3c(c2)ncn3-c2ccc3cccc(N4CCC(N)CC4)c3n2)COC1 [Crenolanib] + O=C(CCCCCCC(=O)Nc1ccccc1)NO [Vorinostat] (partner 1 µM)
Summary of the method: (§1)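 Lung cancer cell lines were pin-tool dosed in 1536-well plates on the day after seeding, with either a lone drug or a fixed anchor-drug dose plus five library-drug doses (not always all listed) in √10 steps. Nuclei were counted on 4× images after 5 days. Relative viability is the ratio of treated-well to vehicle-well nuclei counts, with each value a median of duplicate plates.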

[2] = compound: O=C1NC(=O)[C@@H](c2cn3c4c(cccc24)CCC3)[C@@H]1c1c[nH]c2ccccc12 [Tivantinib] + CC(=O)Nc1cccc(-n2c(=O)n(C3CC3)c(=O)c3c(Nc4ccc(I)cc4F)n(C)c(=O)c(C)c32)c1 [Trametinib] (partner 0.02 µM)
Summary of the method: as §1

[3] = compound: O=C1NC(=O)[C@@H](c2cn3c4c(cccc24)CCC3)[C@@H]1c1c[nH]c2ccccc12 [Tivantinib] + CC1(C)CCC(c2ccc(Cl)cc2)=C(CN2CCN(c3ccc(C(=O)NS(=O)(=O)c4ccc(N[C@H](CCN5CCOCC5)CSc5ccccc5)c(S(=O)(=O)C(F)(F)F)c4)cc3)CC2)C1 [Navitoclax] (partner 0.5 µM)
Summary of the method: as §1

[4] = compound: CC1(COc2ccc3c(c2)ncn3-c2ccc3cccc(N4CCC(N)CC4)c3n2)COC1 [Crenolanib] + COc1cc2c(Oc3ccc(NC(=O)C4(C(=O)Nc5ccc(F)cc5)CC4)cc3F)ccnc2cc1OCCCN1CCOCC1 [Foretinib] (partner 0.25 µM)
Summary of the method: as §1

Row | Cell Line | relative viability ([1]; first compound 0.01 µM) | relative viability ([1]; first compound 0.03162 µM) | relative viability ([1]; first compound 0.1 µM) | relative viability ([1]; first compound 0.3162 µM) | relative viability ([1]; first compound 1 µM) | relative viability ([2]; first compound 0.01 µM) | relative viability ([2]; first compound 0.03162 µM) | relative viability ([2]; first compound 0.1 µM) | relative viability ([2]; first compound 0.3162 µM) | relative viability ([3]; first compound 0.01 µM) | relative viability ([3]; first compound 0.03162 µM) | relative viability ([3]; first compound 0.1 µM) | relative viability ([3]; first compound 0.3162 µM) | relative viability ([4]; first compound 0.01 µM) | relative viability ([4]; first compound 0.03162 µM) | relative viability ([4]; first compound 0.1 µM) | relative viability ([4]; first compound 0.3162 µM) | relative viability ([4]; first compound 1 µM)
1 | NCI-H1650 | 0.454 | 0.516 | 0.582 | 0.812 | 0.676 | 0.451 | 0.663 | 0.666 | 0.536 | 1.33 | 1.33 | 0.987 | 0.929 | 1.34 | 1.27 | 1.2 | 1.23 | 0.945
2 | NCI-H1651 | 0.604 | 0.488 | 0.583 | 0.51 | 0.538 | 0.801 | 0.798 | 0.825 | 0.787 | 1.02 | 0.928 | 1.03 | 0.938 | 0.884 | 0.967 | 0.883 | 0.94 | 0.787
3 | NCI-H1666 | 1.1 | 1.01 | 0.991 | 1.09 | 1.06 | 0.815 | 0.786 | 0.827 | 0.814 | 0.94 | 0.79 | 0.961 | 0.568 | 0.987 | 0.897 | 0.886 | 1.02 | 0.974
4 | NCI-H1734 | 0.852 | 0.801 | 0.786 | 0.946 | 0.757 | 0.611 | 0.676 | 0.677 | 0.604 | 0.849 | 0.86 | 0.802 | 0.896 | 1.02 | 0.773 | 0.859 | 0.925 | 0.876
5 | NCI-H1755 | 0.739 | 0.941 | 0.662 | 0.903 | 0.832 | 0.78 | 0.748 | 0.666 | 0.771 | 1.02 | 0.954 | 0.934 | 1.03 | 0.944 | 0.905 | 0.889 | 0.937 | 0.908
6 | NCI-H1793 | 0.8 | 0.741 | 0.698 | 0.863 | 0.698 | 0.506 | 0.408 | 0.404 | 0.329 | 0.43 | 0.417 | 0.481 | – | 0.669 | 0.895 | 0.64 | 0.608 | 0.689
7 | NCI-H1915 | 0.529 | 0.516 | 0.487 | 0.511 | 0.459 | 0.287 | 0.294 | 0.282 | 0.276 | 0.789 | 0.796 | 0.771 | 0.798 | 1.09 | 1.09 | 1.04 | 1.1 | 0.992
8 | NCI-H1944 | 0.586 | 0.591 | 0.491 | 0.693 | 0.4 | 0.449 | 0.406 | 0.444 | 0.345 | 0.975 | 0.997 | 0.992 | 0.778 | 0.857 | 0.865 | 0.872 | 0.887 | 0.817
9 | NCI-H1975 | 0.729 | 0.684 | 0.638 | 0.71 | 0.678 | 0.323 | 0.338 | 0.33 | 0.298 | 1.03 | 1.07 | 1.12 | 1.16 | 1.06 | 0.969 | 0.847 | 0.94 | 1.04
10 | NCI-H1993 | 0.956 | 0.728 | 0.777 | 0.797 | 0.729 | 0.545 | 0.462 | 0.565 | 0.437 | 1.04 | 0.929 | 1.06 | 0.681 | 0.768 | 0.551 | 0.719 | 0.889 | 0.731
11 | NCI-H2009 | 0.847 | 0.73 | 0.692 | 0.697 | 0.7 | 0.328 | 0.246 | 0.273 | 0.238 | 1.08 | 1.22 | 1.2 | 1.16 | 1.25 | 1.21 | 1.09 | 1.27 | 1.1
12 | NCI-H2023 | 0.705 | 0.531 | 0.617 | 0.813 | 0.634 | 0.593 | 0.551 | 0.433 | 0.414 | 1.01 | 1 | 0.937 | 1 | 0.785 | 1.01 | 0.942 | 1.05 | 1.02
13 | NCI-H2085 | – | 0.764 | 0.809 | 0.781 | 0.759 | 0.62 | 0.484 | 0.544 | 0.516 | 1.18 | 1.28 | 1.2 | 0.939 | 1.01 | 0.845 | 0.847 | 1.04 | 1.12
